# In US5091169A, “Dipyridoxyl phosphate NMRI contrast agent compositions” (priority 1989, dated 1992):
# Where two headings read alike, the source gives them in different places.
# Legend:
# [1] = 10 MHz, 37° C
# Experimental: The relations of protons present in water and plasma exposed to the chelate product of Example 7 was tested by NMR for relaxities, in msec, at 10 MHz, 37° C.
# selected body organs [2] = conditions: for T1, Bile / T1, Heart / T1, Liver / T1, Renal cortex / T1, Renal medulla: 0.01 mmol/kg i.v., 10 MHz
# Experimental: Each of seven rabbits was injected intravenously with 0.01 mmol/kg of the solution obtained in Example 7. The rabbits were sacrificed at 0.25, 0.50, 1.0, 2.0, 4, 6 and 24 hours post-injection, and the proton relation values of selected body organs were measured with NMR, in vitro, at 10 MHz.
# selected body organs [3] = conditions: for T1, Blood / T1, Brain / T1, Large Int. / T1, Liver / T1, Renal Cort. / T1, Renal Med. / T1, Small Int. / T1, Urine / T2, Brain / T2, Large Int. / T2, Liver / T2, Renal Cort. / T2, Renal Med. / T2, Small Int. / T1, Fat / T1, Heart / T1, Lung / T1, Skel. Musc. / T1, Stom. / T2, Fat / T2, Heart / T2, Lung / T2, Skel. Musc. / T2, Stom. / T2, Urine: 30 min, 10 MHz
# Experimental: Each of four rabbits was injected intravenously with one of the following amounts of the solution obtained in Example 7: 0.01 mmoles/kg, 0.05 mmoles/kg, 0.10 mmoles/kg and 0.20 mmoles/kg. The rabbits were sacrificed 30 min post injection, and the proton relaxation values of selected body organs were measured with NMR, in vitro at 10 MHz.
compound,measurement,setting,value
"Cc1ncc(COP(=O)(O)O)c(CN(CCN(CC(=O)[O-])Cc2c(COP(=O)(O)O)cnc(C)c2O)CC(=O)[O-])c1O.[Mn+2] [Mn(DPDP), manganese chelate complex of N,N'-bis-(pyridoxal-5-phosphate)ethylenediamine-N,N'-diacetic acid]",T1 (Plasma),[1]; 0.000039 Molar,1103 ms
same,T1 (Plasma),[1]; 0.000078 Molar,995 ms
same,T1 (Plasma),[1]; 0.000156 Molar,856 ms
same,T1 (Water),[1]; 0.000156 Molar,1470 ms
same,T1 (Plasma),[1]; 0.000312 Molar,624 ms
same,T1 (Water),[1]; 0.000312 Molar,1083 ms
same,T1 (Plasma),[1]; 0.000625 Molar,398 ms
same,T1 (Water),[1]; 0.000625 Molar,639 ms
same,T1 (Plasma),[1]; 0.00125 Molar,240 ms
same,T1 (Water),[1]; 0.00125 Molar,332 ms
same,T1 (Plasma),[1]; 0.0025 Molar,139 ms
same,T1 (Water),[1]; 0.0025 Molar,175 ms
same,T2 (Plasma),[1]; 0.0025 Molar,124 ms
same,T1 (Plasma),[1]; 0.005 Molar,74 ms
same,T1 (Water),[1]; 0.005 Molar,100 ms
same,T2 (Plasma),[1]; 0.005 Molar,68 ms
same,T2 (Water),[1]; 0.005 Molar,86 ms
same,T1 (Plasma),[1]; 0.010 Molar,40 ms
same,T1 (Water),[1]; 0.010 Molar,43 ms
same,T2 (Plasma),[1]; 0.010 Molar,34 ms
same,T2 (Water),[1]; 0.010 Molar,41 ms
same,"T1, Bile",selected body organs [2]; 0.25 hr,160 ms
same,"T1, Heart",selected body organs [2]; 0.25 hr,231 ms
same,"T1, Liver",selected body organs [2]; 0.25 hr,68 ms
same,"T1, Renal cortex",selected body organs [2]; 0.25 hr,202 ms
same,"T1, Renal medulla",selected body organs [2]; 0.25 hr,192 ms
same,"T1, Bile",selected body organs [2]; 0.50 hr,46 ms
same,"T1, Heart",selected body organs [2]; 0.50 hr,352 ms
same,"T1, Liver",selected body organs [2]; 0.50 hr,76 ms
same,"T1, Renal cortex",selected body organs [2]; 0.50 hr,191 ms
same,"T1, Renal medulla",selected body organs [2]; 0.50 hr,231 ms
same,"T1, Bile",selected body organs [2]; 1.0 hr,25 ms
same,"T1, Heart",selected body organs [2]; 1.0 hr,381 ms
same,"T1, Liver",selected body organs [2]; 1.0 hr,48 ms
same,"T1, Renal cortex",selected body organs [2]; 1.0 hr,229 ms
same,"T1, Renal medulla",selected body organs [2]; 1.0 hr,236 ms
same,"T1, Bile",selected body organs [2]; 2 hr,21 ms
same,"T1, Heart",selected body organs [2]; 2 hr,507 ms
same,"T1, Liver",selected body organs [2]; 2 hr,48 ms
same,"T1, Renal cortex",selected body organs [2]; 2 hr,192 ms
same,"T1, Renal medulla",selected body organs [2]; 2 hr,310 ms
same,"T1, Bile",selected body organs [2]; 4 hr,< 1 ms
same,"T1, Heart",selected body organs [2]; 4 hr,522 ms
same,"T1, Liver",selected body organs [2]; 4 hr,145 ms
same,"T1, Renal cortex",selected body organs [2]; 4 hr,210 ms
same,"T1, Renal medulla",selected body organs [2]; 4 hr,340 ms
same,"T1, Bile",selected body organs [2]; 6 hr,14 ms
same,"T1, Heart",selected body organs [2]; 6 hr,663 ms
same,"T1, Liver",selected body organs [2]; 6 hr,209 ms
same,"T1, Renal cortex",selected body organs [2]; 6 hr,239 ms
same,"T1, Renal medulla",selected body organs [2]; 6 hr,375 ms
same,"T1, Bile",selected body organs [2]; 24 hr,107 ms
same,"T1, Heart",selected body organs [2]; 24 hr,660 ms
same,"T1, Liver",selected body organs [2]; 24 hr,315 ms
same,"T1, Renal cortex",selected body organs [2]; 24 hr,328 ms
same,"T1, Renal medulla",selected body organs [2]; 24 hr,563 ms
same,uptake and clearance,"selected body organs [2]; liver, renal cortex, renal medulla and heart","rapid uptake and clearance of Mn(DPDP) in the liver, renal cortex, renal medulla and heart"
same,clearance time through renal and hepatobiliary systems,"selected body organs [2]; post-injection, i.v.",6 to 8 h
same,collection in extravascular space,blood-brain barrier; defect in blood-brain barrier,large amounts of the complex of Mn(DPDP) collect in the extravascular space
same,observation of blood-brain barrier defects by NMRI,blood-brain barrier; not observable without Mn(DPDP) as contrast agent,such defects were observed by NMRI tomography
same,"T1, Blood",selected body organs [3]; 0.01 mmol/kg i.v.,844 ms
same,"T1, Brain",selected body organs [3]; 0.01 mmol/kg i.v.,554 ms
same,"T1, Large Int.",selected body organs [3]; 0.01 mmol/kg i.v.,283 ms
same,"T1, Liver",selected body organs [3]; 0.01 mmol/kg i.v.,176 ms
same,"T1, Renal Cort.",selected body organs [3]; 0.01 mmol/kg i.v.,298 ms
same,"T1, Renal Med.",selected body organs [3]; 0.01 mmol/kg i.v.,502 ms
same,"T1, Small Int.",selected body organs [3]; 0.01 mmol/kg i.v.,324 ms
same,"T1, Urine",selected body organs [3]; 0.01 mmol/kg i.v.,821 ms
same,"T2, Brain",selected body organs [3]; 0.01 mmol/kg i.v.,76 ms
same,"T2, Large Int.",selected body organs [3]; 0.01 mmol/kg i.v.,64 ms
same,"T2, Liver",selected body organs [3]; 0.01 mmol/kg i.v.,39 ms
same,"T2, Renal Cort.",selected body organs [3]; 0.01 mmol/kg i.v.,65 ms
same,"T2, Renal Med.",selected body organs [3]; 0.01 mmol/kg i.v.,99 ms
same,"T2, Small Int.",selected body organs [3]; 0.01 mmol/kg i.v.,72 ms
same,"T1, Blood",selected body organs [3]; 0.05 mmol/kg i.v.,613 ms
same,"T1, Brain",selected body organs [3]; 0.05 mmol/kg i.v.,496 ms
same,"T1, Fat",selected body organs [3]; 0.05 mmol/kg i.v.,200 ms
same,"T1, Heart",selected body organs [3]; 0.05 mmol/kg i.v.,353 ms
same,"T1, Large Int.",selected body organs [3]; 0.05 mmol/kg i.v.,365 ms
same,"T1, Liver",selected body organs [3]; 0.05 mmol/kg i.v.,76 ms
same,"T1, Lung",selected body organs [3]; 0.05 mmol/kg i.v.,575 ms
same,"T1, Renal Cort.",selected body organs [3]; 0.05 mmol/kg i.v.,210 ms
same,"T1, Renal Med.",selected body organs [3]; 0.05 mmol/kg i.v.,223 ms
same,"T1, Skel. Musc.",selected body organs [3]; 0.05 mmol/kg i.v.,494 ms
same,"T1, Small Int.",selected body organs [3]; 0.05 mmol/kg i.v.,237 ms
same,"T1, Stom.",selected body organs [3]; 0.05 mmol/kg i.v.,245 ms
same,"T1, Urine",selected body organs [3]; 0.05 mmol/kg i.v.,150 ms
same,"T2, Brain",selected body organs [3]; 0.05 mmol/kg i.v.,82 ms
same,"T2, Fat",selected body organs [3]; 0.05 mmol/kg i.v.,139 ms
same,"T2, Heart",selected body organs [3]; 0.05 mmol/kg i.v.,54 ms
same,"T2, Large Int.",selected body organs [3]; 0.05 mmol/kg i.v.,83 ms
same,"T2, Liver",selected body organs [3]; 0.05 mmol/kg i.v.,31 ms
same,"T2, Lung",selected body organs [3]; 0.05 mmol/kg i.v.,113 ms
same,"T2, Renal Cort.",selected body organs [3]; 0.05 mmol/kg i.v.,57 ms
same,"T2, Renal Med.",selected body organs [3]; 0.05 mmol/kg i.v.,57 ms
same,"T2, Skel. Musc.",selected body organs [3]; 0.05 mmol/kg i.v.,47 ms
same,"T2, Small Int.",selected body organs [3]; 0.05 mmol/kg i.v.,52 ms
same,"T2, Stom.",selected body organs [3]; 0.05 mmol/kg i.v.,41 ms
same,"T2, Urine",selected body organs [3]; 0.05 mmol/kg i.v.,136 ms
same,"T1, Blood",selected body organs [3]; 0.10 mmol/kg i.v.,506 ms
same,"T1, Brain",selected body organs [3]; 0.10 mmol/kg i.v.,590 ms
same,"T1, Fat",selected body organs [3]; 0.10 mmol/kg i.v.,183 ms
same,"T1, Heart",selected body organs [3]; 0.10 mmol/kg i.v.,300 ms
same,"T1, Large Int.",selected body organs [3]; 0.10 mmol/kg i.v.,290 ms
same,"T1, Liver",selected body organs [3]; 0.10 mmol/kg i.v.,65 ms
same,"T1, Lung",selected body organs [3]; 0.10 mmol/kg i.v.,435 ms
same,"T1, Renal Cort.",selected body organs [3]; 0.10 mmol/kg i.v.,188 ms
same,"T1, Renal Med.",selected body organs [3]; 0.10 mmol/kg i.v.,209 ms
same,"T1, Skel. Musc.",selected body organs [3]; 0.10 mmol/kg i.v.,425 ms
same,"T1, Small Int.",selected body organs [3]; 0.10 mmol/kg i.v.,218 ms
same,"T1, Stom.",selected body organs [3]; 0.10 mmol/kg i.v.,242 ms
same,"T1, Urine",selected body organs [3]; 0.10 mmol/kg i.v.,90 ms
same,"T2, Brain",selected body organs [3]; 0.10 mmol/kg i.v.,90 ms
same,"T2, Fat",selected body organs [3]; 0.10 mmol/kg i.v.,115 ms
same,"T2, Heart",selected body organs [3]; 0.10 mmol/kg i.v.,51 ms
same,"T2, Large Int.",selected body organs [3]; 0.10 mmol/kg i.v.,57 ms
same,"T2, Liver",selected body organs [3]; 0.10 mmol/kg i.v.,23 ms
same,"T2, Lung",selected body organs [3]; 0.10 mmol/kg i.v.,61 ms
same,"T2, Renal Cort.",selected body organs [3]; 0.10 mmol/kg i.v.,55 ms
same,"T2, Renal Med.",selected body organs [3]; 0.10 mmol/kg i.v.,48 ms
same,"T2, Skel. Musc.",selected body organs [3]; 0.10 mmol/kg i.v.,31 ms
same,"T2, Small Int.",selected body organs [3]; 0.10 mmol/kg i.v.,46 ms
same,"T2, Stom.",selected body organs [3]; 0.10 mmol/kg i.v.,52 ms
same,"T2, Urine",selected body organs [3]; 0.10 mmol/kg i.v.,75 ms
same,"T1, Blood",selected body organs [3]; 0.20 mmol/kg i.v.,411 ms
same,"T1, Brain",selected body organs [3]; 0.20 mmol/kg i.v.,352 ms
same,"T1, Fat",selected body organs [3]; 0.20 mmol/kg i.v.,192 ms
same,"T1, Heart",selected body organs [3]; 0.20 mmol/kg i.v.,205 ms
same,"T1, Large Int.",selected body organs [3]; 0.20 mmol/kg i.v.,256 ms
same,"T1, Liver",selected body organs [3]; 0.20 mmol/kg i.v.,68 ms
same,"T1, Lung",selected body organs [3]; 0.20 mmol/kg i.v.,376 ms
same,"T1, Renal Cort.",selected body organs [3]; 0.20 mmol/kg i.v.,143 ms
same,"T1, Renal Med.",selected body organs [3]; 0.20 mmol/kg i.v.,127 ms
same,"T1, Skel. Musc.",selected body organs [3]; 0.20 mmol/kg i.v.,232 ms
same,"T1, Small Int.",selected body organs [3]; 0.20 mmol/kg i.v.,131 ms
same,"T1, Stom.",selected body organs [3]; 0.20 mmol/kg i.v.,271 ms
same,"T2, Brain",selected body organs [3]; 0.20 mmol/kg i.v.,66 ms
same,"T2, Heart",selected body organs [3]; 0.20 mmol/kg i.v.,47 ms
same,"T2, Large Int.",selected body organs [3]; 0.20 mmol/kg i.v.,74 ms
same,"T2, Liver",selected body organs [3]; 0.20 mmol/kg i.v.,25 ms
same,"T2, Lung",selected body organs [3]; 0.20 mmol/kg i.v.,63 ms
same,"T2, Renal Cort.",selected body organs [3]; 0.20 mmol/kg i.v.,53 ms
same,"T2, Renal Med.",selected body organs [3]; 0.20 mmol/kg i.v.,60 ms
same,"T2, Skel. Musc.",selected body organs [3]; 0.20 mmol/kg i.v.,31 ms
same,"T2, Small Int.",selected body organs [3]; 0.20 mmol/kg i.v.,46 ms
same,"T2, Stom.",selected body organs [3]; 0.20 mmol/kg i.v.,53 ms
same,heart uptake vs dose,selected body organs [3]; dose range studied,the heart continues to uptake Mn(DPDP) through the dose range studied
same,uptake in organs,"selected body organs [3]; heart, liver and kidneys, i.v.","rapid uptake of the Mn(DPDP) in the heart, liver and kidneys"
same,brain uptake,selected body organs [3]; higher doses,uptake by the brain was observed at higher doses
same,"saturating dose, liver and kidneys","selected body organs [3]; i.v., 30 min post injection",0.10 mmol/kg
